Here are results for 32 compounds from the RepoRT retention time repository.

The data set is described as follows: RP, Waters ACQUITY Premier BEH C18, 100 × 2.1 mm, 1.7 µm, 40 °C, 0.3 to 0.4 mL/min, estimated dead time 0.73 min; A: water + 0.1% formic acid; B: acetonitrile + 0.1% formic acid; gradient (min/%B) 0/0.5 0.1/0.5 10/80 10.1/99.5 12/0.5 12.1/0.5 14.5/0.5. The following applies: stereoisomer not certain.
As for `O=C(O)C1OC(Oc2cc3oc(-c4ccccc4)cc(=O)c3c(O)c2O)C(O)C(O)C1O` (configuration not stated) [BAICALIN], the LC retention time is 5.17 min.

As for `COC(=O)CCCN` [METHYL 4-AMINOBUTYRATE], the LC retention time was 1.4 min.

Take `O=C(O)CCCCc1ccccc1` [5-PHENYLVALERIC ACID]: the LC retention time is 7.21 min.

`O=C(O)C(O)c1ccc(O)cc1` (configuration not stated) [P-HYDROXYMANDELIC ACID]: the LC retention time was 2.48 min.

As for `CC(C)=CCCC(C)C1CCC2C3CC=C4CC(O)CCC4(C)C3CCC12C` (configuration not stated) [DESMOSTEROL], the LC retention time was 9.25 min.

In the case of `Nc1ccccc1S(=O)(=O)O` [ANILINE-2-SULFONATE], the LC retention time was 2.54 min.

Regarding `Cc1cn(C2OC(CO)C(O)C2O)c(=O)nc1N` (configuration not stated) [5-METHYLCYTIDINE], the LC retention time is 2.36 min.

In the case of `O=C(O)CNC(=O)CCc1ccccc1` [PHENYLPROPIONYLGLYCINE], the LC retention time is 4.84 min.

In the case of `CC(=O)OCC[N+](C)(C)C` [ACETYLCHOLINE], the LC retention time was 0.961 min.

Take `Nc1nc2c(ncn2C2OC(CO)C(O)C2O)c(=O)[nH]1` (configuration not stated) [GUANOSINE]: the LC retention time was 3.37 min.

For `C[N+](C)(C)C(Cc1c[nH]c2ccccc12)C(=O)[O-]` (configuration not stated) [LENTICIN], the LC retention time was 3.64 min.

As to `CCCCCCCCCC(O)CC(=O)O` (configuration not stated) [3-HYDROXYDODECANOIC ACID], the LC retention time was 7.65 min.

On to `O=C(O)Cc1c[nH]c2ccc(O)cc12` [5-HYDROXYINDOLEACETATE], for which the LC retention time is 4.41 min.

Take `CC(=O)NC(Cc1c[nH]c2ccccc12)C(=O)O` (configuration not stated) [N-ACETYLTRYPTOPHAN]: the LC retention time was 5.31 min.

`CC1NCCc2cc(O)c(O)cc21` (configuration not stated) [SALSOLINOL]: the LC retention time is 2.56 min.

Regarding `CCC(CO)C(=O)O` (configuration not stated) [2-ETHYLHYDRACRYLIC ACID], the LC retention time was 3.81 min.

As to `CC(C(=O)O)c1ccc(O)cc1` (configuration not stated) [4-HYDROXYPHENYL-2-PROPIONIC ACID], the LC retention time is 5.12 min.

With `O=C(O)c1cccnc1` [NICOTINATE], the LC retention time was 1.42 min.

Take `O=C(O)C1OC(Oc2c(-c3ccc(O)c(O)c3)oc3cc(O)cc(O)c3c2=O)C(O)C(O)C1O` (configuration not stated) [QUERCETIN 3-O-GLUCURONIDE]: the LC retention time is 4.41 min.

Take `CC(C=CC=C(C)C=CC1=C(C)C(=O)CCC1(C)C)=CC=CC=C(C)C=CC=C(C)C=CC1=C(C)C(=O)CCC1(C)C` [CANTHAXANTHIN]: the LC retention time is 11.3 min.

Turning to `OCC1OC(Oc2c[nH]c3ccccc23)C(O)C(O)C1O` (configuration not stated), the LC retention time is 4.43 min.

As to `CC12CCC(=O)C=C1CCC1C2CCC2(C)C1CCC2(O)C(=O)CO` (configuration not stated) [CORTEXOLONE], the LC retention time is 6.74 min.

Consider `CC(=O)NCCCC(=O)O` [4-ACETAMIDOBUTANOATE], for which the LC retention time is 3.27 min.

With `CC1C(=O)OC2C(O)C34C5CC(C(C)(C)C)C36C(OC(=O)C6O)OC4(C(=O)O5)C12O` (configuration not stated) [GINKGOLIDE B], the LC retention time is 5.64 min.

As to `O=c1ccc2ccc3occc3c2o1` [ANGELICIN], the LC retention time was 6.41 min.

Regarding `Nc1ncnc2c1ncn2C1OC(COP(=O)([O-])OP(=O)([O-])OCC2OC(O)C(O)C2O)C(O)C1O` (configuration not stated) [ADENOSINE DIPHOSPHATE RIBOSE], the LC retention time was 0.954 min.

Take `NC(Cc1ccc(O)cc1)C(=O)O` (configuration not stated) [TYROSINE]: the LC retention time is 2.44 min.

For the compound `Cc1cc(C(=O)O)ccc1O` [4-HYDROXY-3-METHYLBENZOIC ACID], the LC retention time is 4.47 min.

With `O=C(OC1OC2COC(=O)c3cc(O)c(O)c(O)c3-c3c(cc(O)c(O)c3O)C(=O)OC(C2O)C1O)c1cc(O)c(O)c(O)c1` (configuration not stated) [CORILAGIN], the LC retention time was 4.37 min.

For `CC(=O)Oc1cccc(O)c1` [RESORCINOL MONOACETATE], the LC retention time was 5.71 min.

`CC(C)CC(O)C(=O)O` (configuration not stated) [HYDROXYISOCAPROIC ACID]: the LC retention time was 4.88 min.

Turning to `Cn1c(=O)[nH]c(=O)c2[nH]cnc21` [3-METHYLXANTHINE], the LC retention time is 1.3 min.
